What was measured:
[1] = target: AP2-associated protein kinase 1 (Homo sapiens, UniProt Q2M2I8); assay: Promega NanoBRET (AAK1)
Aurora kinase B [2] = target: T1, Aurora kinase B (Homo sapiens, UniProt Q96GD4); assay: Promega NanoBRET (AURKB)
[3] = target: Aurora kinase A (Homo sapiens) (UniProt O14965); assay: activity of Aurora-A(h) at 1.0 µM in the Eurofins Kinase panel; details: Compound concentration 1.0 uM
Aurora kinase B [4] = target: T1, Aurora kinase B; assay: activity of Aurora-B(h) at 1.0 µM in the Eurofins Kinase panel; details: Compound concentration 1.0 uM
[5] = target: Tyrosine-protein kinase BTK (Homo sapiens) (UniProt Q06187); assay: activity of BTK(h) at 1.0 µM in the Eurofins Kinase panel; details: Compound concentration 1.0 uM
[6] = target: Calcium/calmodulin-dependent protein kinase type 1 (Homo sapiens) (UniProt Q14012); assay: activity of CaMKI(h) at 1.0 µM in the Eurofins Kinase panel; details: Compound concentration 1.0 uM
[7] = target: Calcium/calmodulin-dependent protein kinase type II subunit beta (Homo sapiens) (UniProt Q13554); assay: activity of CaMKIIbeta(h) at 1.0 µM in the Eurofins Kinase panel; details: Compound concentration 1.0 uM
[8] = target: Cyclin-dependent kinase 13/Cyclin-K (Homo sapiens) (UniProt Q14004+O75909); assay: activity of CDK13/cyclinK(h) at 1.0 µM in the Eurofins Kinase panel; assay type: protein-complex assay; details: Compound concentration 1.0 uM
[9] = target: CDK6/cyclin D3 (Homo sapiens) (UniProt P30281+Q00534); assay: activity of CDK6/cyclinD3(h) at 1.0 µM in the Eurofins Kinase panel; assay type: protein-complex assay; details: Compound concentration 1.0 uM
[10] = target: Casein kinase I isoform alpha (Homo sapiens) (UniProt P48729); assay: activity of CK1alpha(h) at 1.0 µM in the Eurofins Kinase panel; details: Compound concentration 1.0 uM
[11] = target: Casein kinase I isoform epsilon (Homo sapiens) (UniProt P49674); assay: activity of CK1epsilon(h) at 1.0 µM in the Eurofins Kinase panel; details: Compound concentration 1.0 uM
[12] = target: Serine/threonine-protein kinase DCLK1 (Homo sapiens) (UniProt O15075); assay: activity of DCAMKL1(h) at 1.0 µM in the Eurofins Kinase panel; details: Compound concentration 1.0 uM
[13] = target: Ephrin type-A receptor 3 (Homo sapiens) (UniProt P29320); assay: activity of EphA3(h) at 1.0 µM in the Eurofins Kinase panel; details: Compound concentration 1.0 uM
[14] = target: Ephrin type-A receptor 4 (Homo sapiens) (UniProt P54764); assay: activity of EphA4(h) at 1.0 µM in the Eurofins Kinase panel; details: Compound concentration 1.0 uM
[15] = target: Ephrin type-B receptor 1 (Homo sapiens) (UniProt P54762); assay: activity of EphB1(h) at 1.0 µM in the Eurofins Kinase panel; details: Compound concentration 1.0 uM
[16] = target: Receptor tyrosine-protein kinase erbB-4 (Homo sapiens) (UniProt Q15303); assay: activity of ErbB4(h) at 1.0 µM in the Eurofins Kinase panel; details: Compound concentration 1.0 uM
[17] = target: Tyrosine-protein kinase Fer (Homo sapiens) (UniProt P16591); assay: activity of Fer(h) at 1.0 µM in the Eurofins Kinase panel; details: Compound concentration 1.0 uM
[18] = target: Fibroblast growth factor receptor 4 (Homo sapiens) (UniProt P22455); assay: activity of FGFR4(h) at 1.0 µM in the Eurofins Kinase panel; details: Compound concentration 1.0 uM
[19] = target: Homeodomain-interacting protein kinase 1 (Homo sapiens) (UniProt Q86Z02); assay: activity of HIPK1(h) at 1.0 µM in the Eurofins Kinase panel; details: Compound concentration 1.0 uM
[20] = target: Mitogen-activated protein kinase kinase kinase kinase 1 (Homo sapiens) (UniProt Q92918); assay: activity of HPK1(h) at 1.0 µM in the Eurofins Kinase panel; details: Compound concentration 1.0 uM
[21] = target: Tyrosine-protein kinase JAK1 (Homo sapiens) (UniProt P23458); assay: activity of JAK1(h) at 1.0 µM in the Eurofins Kinase panel; details: Compound concentration 1.0 uM
[22] = target: Mitogen-activated protein kinase 10 (Homo sapiens) (UniProt P53779); assay: activity of JNK3(h) at 1.0 µM in the Eurofins Kinase panel; details: Compound concentration 1.0 uM
[23] = target: Tyrosine-protein kinase Lyn (Homo sapiens) (UniProt P07948); assay: activity of Lyn(h) at 1.0 µM in the Eurofins Kinase panel; details: Compound concentration 1.0 uM
[24] = target: Mitogen-activated protein kinase kinase kinase 3 (Homo sapiens) (UniProt Q99759); assay: activity of MEKK3(h) at 1.0 µM in the Eurofins Kinase panel; details: Compound concentration 1.0 uM
[25] = target: Serine/threonine-protein kinase MRCK beta (Homo sapiens) (UniProt Q9Y5S2); assay: activity of MRCKbeta(h) at 1.0 µM in the Eurofins Kinase panel; details: Compound concentration 1.0 uM
[26] = target: Serine/threonine-protein kinase 3 (Homo sapiens) (UniProt Q13188); assay: activity of MST2(h) at 1.0 µM in the Eurofins Kinase panel; details: Compound concentration 1.0 uM
[27] = target: Muscle, skeletal receptor tyrosine-protein kinase (Homo sapiens) (UniProt O15146); assay: activity of MuSK(h) at 1.0 µM in the Eurofins Kinase panel; details: Compound concentration 1.0 uM
[28] = target: Serine/threonine-protein kinase PAK 6 (Homo sapiens) (UniProt Q9NQU5); assay: activity of PAK6(h) at 1.0 µM in the Eurofins Kinase panel; details: Compound concentration 1.0 uM
[29] = target: Phosphatidylinositol 4-phosphate 5-kinase type-1 alpha (Homo sapiens) (UniProt Q99755); assay: activity of PIP5K1alpha(h) at 1.0 µM in the Eurofins Kinase panel; details: Compound concentration 1.0 uM
[30] = target: Protein kinase C beta type (Homo sapiens) (UniProt P05771); assay: activity of PKCbetaII(h) at 1.0 µM in the Eurofins Kinase panel; details: Compound concentration 1.0 uM
[31] = target: Protein kinase C gamma type (Homo sapiens) (UniProt P05129); assay: activity of PKCgamma(h) at 1.0 µM in the Eurofins Kinase panel; details: Compound concentration 1.0 uM
[32] = target: Serine/threonine-protein kinase D1 (Homo sapiens) (UniProt Q15139); assay: activity of PKCmu(h) at 1.0 µM in the Eurofins Kinase panel; details: Compound concentration 1.0 uM
[33] = target: Serine/threonine-protein kinase PLK1 (Homo sapiens) (UniProt P53350); assay: activity of Plk1(h) at 1.0 µM in the Eurofins Kinase panel; details: Compound concentration 1.0 uM
[34] = target: Serine/threonine-protein kinase N2 (Homo sapiens) (UniProt Q16513); assay: activity of PRK2(h) at 1.0 µM in the Eurofins Kinase panel; details: Compound concentration 1.0 uM
[35] = target: Serine/threonine-protein kinase SIK3 (Homo sapiens) (UniProt Q9Y2K2); assay: activity of SIK3(h) at 1.0 µM in the Eurofins Kinase panel; details: Compound concentration 1.0 uM
[36] = target: Mitogen-activated protein kinase kinase kinase 7 (Homo sapiens) (UniProt O43318); assay: activity of TAK1(h) at 1.0 µM in the Eurofins Kinase panel; details: Compound concentration 1.0 uM
[37] = target: Angiopoietin-1 receptor (Homo sapiens) (UniProt Q02763); assay: activity of Tie2(h) at 1.0 µM in the Eurofins Kinase panel; details: Compound concentration 1.0 uM
[38] = target: TRAF2 and NCK-interacting protein kinase (Homo sapiens) (UniProt Q9UKE5); assay: activity of TNIK(h) at 1.0 µM in the Eurofins Kinase panel; details: Compound concentration 1.0 uM
[39] = target: Tau-tubulin kinase 2 (Homo sapiens) (UniProt Q6IQ55); assay: activity of TTBK2(h) at 1.0 µM in the Eurofins Kinase panel; details: Compound concentration 1.0 uM
[40] = target: Serine/threonine-protein kinase ULK2 (Homo sapiens) (UniProt Q8IYT8); assay: activity of ULK2(h) at 1.0 µM in the Eurofins Kinase panel; details: Compound concentration 1.0 uM

T1 sequence (Q96GD4 whole entry): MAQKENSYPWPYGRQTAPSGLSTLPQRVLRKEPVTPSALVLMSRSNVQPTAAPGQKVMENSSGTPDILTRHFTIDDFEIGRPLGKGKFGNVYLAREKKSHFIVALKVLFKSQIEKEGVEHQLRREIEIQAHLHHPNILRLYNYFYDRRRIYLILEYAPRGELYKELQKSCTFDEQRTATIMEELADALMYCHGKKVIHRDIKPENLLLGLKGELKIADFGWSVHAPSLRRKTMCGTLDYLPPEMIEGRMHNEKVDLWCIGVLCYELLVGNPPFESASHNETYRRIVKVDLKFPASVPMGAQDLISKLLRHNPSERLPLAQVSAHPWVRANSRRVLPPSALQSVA
Sequence of TRAF2 and NCK-interacting protein kinase (Homo sapiens) (Q9UKE5 whole entry, looked up): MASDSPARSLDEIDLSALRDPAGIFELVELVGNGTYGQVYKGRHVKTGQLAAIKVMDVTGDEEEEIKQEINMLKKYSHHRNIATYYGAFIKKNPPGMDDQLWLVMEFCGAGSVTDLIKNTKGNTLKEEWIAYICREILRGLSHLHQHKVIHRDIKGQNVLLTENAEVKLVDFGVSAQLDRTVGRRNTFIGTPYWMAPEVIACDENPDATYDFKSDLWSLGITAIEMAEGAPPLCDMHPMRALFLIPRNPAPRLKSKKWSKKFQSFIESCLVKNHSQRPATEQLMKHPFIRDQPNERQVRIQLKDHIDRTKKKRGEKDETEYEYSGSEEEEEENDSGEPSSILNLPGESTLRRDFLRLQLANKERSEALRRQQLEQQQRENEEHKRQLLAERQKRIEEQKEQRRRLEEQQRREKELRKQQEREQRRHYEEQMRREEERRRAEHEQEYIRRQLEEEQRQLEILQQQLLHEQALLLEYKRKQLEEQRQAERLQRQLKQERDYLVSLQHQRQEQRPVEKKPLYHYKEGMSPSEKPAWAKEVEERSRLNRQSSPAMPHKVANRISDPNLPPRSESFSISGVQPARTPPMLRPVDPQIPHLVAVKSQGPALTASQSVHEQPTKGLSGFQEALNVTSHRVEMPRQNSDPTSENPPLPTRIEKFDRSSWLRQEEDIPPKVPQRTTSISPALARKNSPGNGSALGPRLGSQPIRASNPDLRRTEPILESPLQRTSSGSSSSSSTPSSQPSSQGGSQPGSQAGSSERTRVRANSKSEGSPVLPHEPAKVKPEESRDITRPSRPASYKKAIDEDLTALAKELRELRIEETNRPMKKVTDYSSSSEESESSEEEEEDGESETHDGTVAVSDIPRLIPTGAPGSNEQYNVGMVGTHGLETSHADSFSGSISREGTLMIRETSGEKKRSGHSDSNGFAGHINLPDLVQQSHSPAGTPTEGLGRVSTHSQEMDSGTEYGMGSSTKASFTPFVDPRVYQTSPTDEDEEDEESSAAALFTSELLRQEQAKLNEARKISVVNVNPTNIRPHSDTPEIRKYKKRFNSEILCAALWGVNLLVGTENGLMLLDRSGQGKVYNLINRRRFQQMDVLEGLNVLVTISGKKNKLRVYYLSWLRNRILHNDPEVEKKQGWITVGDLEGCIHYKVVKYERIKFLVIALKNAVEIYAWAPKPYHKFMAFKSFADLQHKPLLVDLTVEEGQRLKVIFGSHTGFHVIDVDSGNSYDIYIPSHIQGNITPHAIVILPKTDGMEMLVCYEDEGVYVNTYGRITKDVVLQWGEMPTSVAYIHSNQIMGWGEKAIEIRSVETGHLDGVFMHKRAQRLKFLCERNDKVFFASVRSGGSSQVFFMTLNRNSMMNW
Sequence of Tyrosine-protein kinase Lyn (Homo sapiens) (P07948 2-512 limits assumed): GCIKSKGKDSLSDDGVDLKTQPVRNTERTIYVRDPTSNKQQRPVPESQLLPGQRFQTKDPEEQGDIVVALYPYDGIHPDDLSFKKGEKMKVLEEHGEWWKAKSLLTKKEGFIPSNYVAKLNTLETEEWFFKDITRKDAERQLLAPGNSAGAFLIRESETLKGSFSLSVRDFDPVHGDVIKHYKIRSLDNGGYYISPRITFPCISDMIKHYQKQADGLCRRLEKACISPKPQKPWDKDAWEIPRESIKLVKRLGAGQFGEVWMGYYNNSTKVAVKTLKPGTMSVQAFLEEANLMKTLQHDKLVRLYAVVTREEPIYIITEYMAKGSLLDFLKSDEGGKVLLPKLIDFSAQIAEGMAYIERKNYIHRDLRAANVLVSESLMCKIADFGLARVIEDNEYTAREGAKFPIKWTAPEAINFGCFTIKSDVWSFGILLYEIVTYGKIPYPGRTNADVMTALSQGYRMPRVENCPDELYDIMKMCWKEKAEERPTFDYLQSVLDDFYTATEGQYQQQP
Sequence of Serine/threonine-protein kinase SIK3 (Homo sapiens) (Q9Y2K2 whole entry, looked up): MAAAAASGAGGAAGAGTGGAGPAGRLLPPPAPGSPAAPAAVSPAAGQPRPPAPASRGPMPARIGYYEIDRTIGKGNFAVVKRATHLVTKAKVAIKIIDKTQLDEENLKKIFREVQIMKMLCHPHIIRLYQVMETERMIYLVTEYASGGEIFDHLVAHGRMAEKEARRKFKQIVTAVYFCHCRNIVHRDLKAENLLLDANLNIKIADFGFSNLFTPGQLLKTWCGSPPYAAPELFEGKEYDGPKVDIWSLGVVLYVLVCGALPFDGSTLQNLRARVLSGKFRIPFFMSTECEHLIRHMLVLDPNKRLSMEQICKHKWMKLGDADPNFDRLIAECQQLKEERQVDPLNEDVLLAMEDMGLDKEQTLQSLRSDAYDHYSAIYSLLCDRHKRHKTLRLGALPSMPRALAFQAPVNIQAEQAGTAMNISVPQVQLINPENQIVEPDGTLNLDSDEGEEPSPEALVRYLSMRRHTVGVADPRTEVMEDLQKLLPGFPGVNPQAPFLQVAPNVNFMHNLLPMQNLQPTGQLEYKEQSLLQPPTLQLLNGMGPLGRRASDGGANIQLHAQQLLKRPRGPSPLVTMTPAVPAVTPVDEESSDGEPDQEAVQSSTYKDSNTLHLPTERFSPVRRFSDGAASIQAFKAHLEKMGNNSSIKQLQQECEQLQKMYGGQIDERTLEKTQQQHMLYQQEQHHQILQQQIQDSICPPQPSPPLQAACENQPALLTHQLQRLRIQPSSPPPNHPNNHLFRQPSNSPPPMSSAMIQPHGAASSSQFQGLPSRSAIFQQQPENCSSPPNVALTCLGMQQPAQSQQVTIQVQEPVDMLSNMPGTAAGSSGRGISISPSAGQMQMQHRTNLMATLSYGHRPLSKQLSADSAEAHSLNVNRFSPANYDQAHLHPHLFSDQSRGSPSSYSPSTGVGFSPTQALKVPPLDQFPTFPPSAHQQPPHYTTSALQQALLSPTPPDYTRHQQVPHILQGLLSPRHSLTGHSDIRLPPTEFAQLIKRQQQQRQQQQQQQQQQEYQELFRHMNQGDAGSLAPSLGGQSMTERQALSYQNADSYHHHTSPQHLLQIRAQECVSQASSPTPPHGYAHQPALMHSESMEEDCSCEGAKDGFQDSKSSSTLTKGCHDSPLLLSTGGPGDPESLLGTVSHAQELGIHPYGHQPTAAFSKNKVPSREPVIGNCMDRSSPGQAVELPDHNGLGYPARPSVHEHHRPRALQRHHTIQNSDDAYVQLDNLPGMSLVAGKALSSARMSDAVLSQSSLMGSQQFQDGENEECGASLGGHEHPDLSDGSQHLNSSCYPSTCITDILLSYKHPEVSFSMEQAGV
Sequence of Serine/threonine-protein kinase PAK 6 (Homo sapiens) (Q9NQU5 whole entry, looked up): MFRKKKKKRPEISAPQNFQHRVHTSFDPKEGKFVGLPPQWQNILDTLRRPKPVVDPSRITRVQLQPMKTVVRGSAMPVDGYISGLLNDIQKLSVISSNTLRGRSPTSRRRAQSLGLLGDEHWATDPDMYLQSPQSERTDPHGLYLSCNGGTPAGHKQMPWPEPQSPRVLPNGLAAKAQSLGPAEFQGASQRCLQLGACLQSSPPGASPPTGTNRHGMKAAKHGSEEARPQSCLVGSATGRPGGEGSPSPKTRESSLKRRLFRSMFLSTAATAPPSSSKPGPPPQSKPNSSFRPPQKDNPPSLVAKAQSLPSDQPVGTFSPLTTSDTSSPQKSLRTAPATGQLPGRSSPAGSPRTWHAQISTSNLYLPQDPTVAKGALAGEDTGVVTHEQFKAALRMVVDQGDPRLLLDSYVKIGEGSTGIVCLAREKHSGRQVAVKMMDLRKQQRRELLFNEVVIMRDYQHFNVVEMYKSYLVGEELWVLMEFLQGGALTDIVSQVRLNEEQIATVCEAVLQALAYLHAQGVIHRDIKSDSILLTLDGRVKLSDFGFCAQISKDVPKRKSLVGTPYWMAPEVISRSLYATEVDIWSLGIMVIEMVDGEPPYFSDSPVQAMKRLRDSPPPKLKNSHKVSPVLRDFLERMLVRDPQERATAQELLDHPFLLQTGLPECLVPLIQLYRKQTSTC
Sequence of Mitogen-activated protein kinase kinase kinase 3 (Homo sapiens) (Q99759 whole entry): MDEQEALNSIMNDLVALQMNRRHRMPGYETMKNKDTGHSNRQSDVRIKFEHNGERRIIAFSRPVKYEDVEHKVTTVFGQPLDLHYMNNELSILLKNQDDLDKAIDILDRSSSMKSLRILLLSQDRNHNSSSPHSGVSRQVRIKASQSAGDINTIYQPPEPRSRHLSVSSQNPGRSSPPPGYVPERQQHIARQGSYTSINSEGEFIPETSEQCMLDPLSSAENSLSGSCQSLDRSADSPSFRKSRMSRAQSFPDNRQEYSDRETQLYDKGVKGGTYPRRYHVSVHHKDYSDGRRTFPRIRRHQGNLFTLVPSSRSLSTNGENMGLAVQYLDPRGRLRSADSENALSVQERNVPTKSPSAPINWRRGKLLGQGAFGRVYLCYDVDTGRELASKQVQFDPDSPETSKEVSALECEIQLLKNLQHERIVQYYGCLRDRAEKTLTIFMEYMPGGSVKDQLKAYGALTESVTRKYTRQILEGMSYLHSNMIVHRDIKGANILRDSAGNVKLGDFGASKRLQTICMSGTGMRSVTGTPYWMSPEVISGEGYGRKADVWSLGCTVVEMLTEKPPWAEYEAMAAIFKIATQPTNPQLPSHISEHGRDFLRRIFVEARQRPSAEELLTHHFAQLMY

## Cc1cc2c(-c3ccc(NC(=O)[C@H](N)CC(C)(C)C)cc3C)ccnc2[nH]1
[1]
  IC50: 6.2 µM (not active)
Aurora kinase B [2]
  IC50: > 10 µM (not active)
[3]
  activity: 97%
Aurora kinase B [4]
  activity: 109%
[5]
  activity: 122%
[6]
  activity: 104%
[7]
  activity: 93%
[8]
  activity: 99%
[9]
  activity: 90%
[10]
  activity: 97%
[11]
  activity: 96%
[12]
  activity: 95%
[13]
  activity: 79%
[14]
  activity: 92%
[15]
  activity: 83%
[16]
  activity: 94%
[17]
  activity: 103%
[18]
  activity: 114%
[19]
  activity: 100%
[20]
  activity: 73%
[21]
  activity: 85%
[22]
  activity: 88%
[23]
  activity: 80%
[24]
  activity: 107%
[25]
  activity: 100%
[26]
  activity: 106%
[27]
  activity: 96%
[28]
  activity: 101%
[29]
  activity: 103%
[30]
  activity: 87%
[31]
  activity: 97%
[32]
  activity: 109%
[33]
  activity: 111%
[34]
  activity: 92%
[35]
  activity: 105%
[36]
  activity: 91%
[37]
  activity: 99%
[38]
  activity: 93%
[39]
  activity: 94%
[40]
  activity: 98%

— ChEMBL document CHEMBL5723584 (2023)
